Measured values taken from publication PMC12298827, “Subchronic Toxicities of Four Per- and Polyfluoroalkyl Substances (PFASs) by Oral Exposure in Sprague–Dawley Rats” (Toxics, 2025).

System: male and female Sprague–Dawley rats
Experiment: 90-day subchronic oral gavage toxicity study
Format: in vivo, rat
Settings: female
Protocol: Subchronic (90-day) studies were performed in accordance with current U.S. EPA’s Toxic Substances Control Act Good Laboratory Practice (GLP) Standards, with the following two general exceptions to the GLP guidelines: Analysis of the dose formulations was conducted according to RTI-approved Standard Operating Procedures, and corn oil (the vehicle) was not characterized (certificate of analysis from the vendor is available in the appendices to the final reports). Male and female Sprague–Dawley rats (five dose levels plus a control, n = 10/sex/dose group, corn oil vehicle dose volume of 3 mL/kg; oral gavage) were used in these studies, and the rats were euthanized on SD 91. The dose levels for PFHI were 0, 12.5, 25, 50, 100, and 200 mg/kg-day. The dose levels for MHFPK were 0, 18.8, 37.5, 75, 150, and 300 mg/kg-day. The dose levels for PFNAC were 0, 0.1, 0.3, 1.0, 3.0, and 10 mg/kg-day for male rats and 0, 0.3, 1.0, 3.0, 10, and 30 mg/kg-day for female rats. For CTFPA, the dose levels were 0, 1.9, 3.8. 7.5, 15, and 30 mg/kg-day for male rats and 0, 6.3, 12.5, 25, 50, and 100 mg/kg-day for female rats. For each PFAS, three batches of dosing solution were prepared. The time between the batch preparation of the dosing solutions ranged between 29 and 39 days. Blood samples were collected from all the rats at termination for serum chemistry, hematology, coagulation, and the analysis of the parent PFAS chemical in the plasma. In vivo data collection and further detail on the endpoints examined postmortem are described below.
The rats were observed twice daily for morbidity and mortality throughout the study period. At least once prior to randomization to test groups and weekly thereafter, the rats were physically examined, and bodyweights were obtained. Feed consumption was quantified weekly starting on SD 1.
Neurotoxicity was evaluated using the functional observational battery (FOB) and measuring locomotor activity (LMA) 2–4 h post dosing on SDs 78–80 and 80–84, respectively. For both the 14- and 90-day studies, an ophthalmologic examination was conducted prior to randomization and near the end of the study, using indirect ophthalmoscopy and slit–lamp biomicroscopy (as needed) after the administration of a mydriatic solution.
Hematology, biochemistry, and coagulation endpoints were measured at the termination of the study. A Siemens Advia 2120i hematology analyzer (Siemens Healthineers, Erlangen, Germany) was used to measure (or calculate) the parameters related to the complete blood count, leukocyte differential count, and reticulocyte count. The hematology parameters are listed and described in Table 2. The prothrombin time […] and activated partial thromboplastin time (APTT) were measured using an Instrumentation Laboratory (Bedford, MA, USA) ACL Elite Pro coagulation analyzer (laser–nephelometric centrifugal method).
At necropsy, the rats were visually examined for external abnormalities and organ weights (absolute and relative to the BW and brain weight), which were recorded (paired organs weighed together). The tissues were preserved in 10% neutral buffered formalin (NBF), except for the ocular tissues, testes, and epididymides, which were preserved in modified Davidson’s fixative and later transferred to 10% NBF. Bone marrow smears were prepared from the femurs, and the slides were air-dried, fixed in methanol, stained, and stored at room temperature for possible future evaluation. The preserved tissues were embedded in paraffin, sectioned, stained with hematoxylin and eosin, and examined by a board-certified veterinary pathologist.
Statistical analysis was performed using Provantis™ Version 10 or greater (Instem LSS, Limited; Stone, Staffordshire, UK). Differences among the treatment groups compared to the control were evaluated using one-way analysis of variance (ANOVA) if the underlying assumptions of a normal distribution (Shapiro–Wilk test) and the homogeneity of the variance (Levene’s test) were satisfied. […]

CC(=O)C(F)(F)C(F)(F)C(F)(F)F [MHFPK, Methyl heptafluoropropyl ketone]
% Diff, % BW Gain (75 mg/kg-day): 4.28%
% Diff, Total BW change (75 mg/kg-day): 4.15%
% Diff, Total Food Consumed (75 mg/kg-day): 4.34%
A/G (75 mg/kg-day): 1.27±0.60 ratio
ABEOS (75 mg/kg-day): 0.090±0.027 K/µL
ABNEUT (75 mg/kg-day): 1.005±0.441 K/µL
ABRETi (75 mg/kg-day): 193.71±46.37 10^9/L
ALB (75 mg/kg-day): 4.45 ± 0.91 g/dL
ALPi (75 mg/kg-day): 55.0±18.5 U/L
APTT (75 mg/kg-day): 18.68 s
BUN (75 mg/kg-day): 16.5 ± 2.1 mg/dL
CHOL (75 mg/kg-day): 99.1 ± 21.5 mg/dL
GLOB (75 mg/kg-day): 3.85 ± 0.96 g/dL
GLUC (75 mg/kg-day): 159.0 ± 32.6 mg/dL
HCT (75 mg/kg-day): 45.88±1.35%
HGB (75 mg/kg-day): 14.40 ± 0.50 g/dL
Kidney Weight (75 mg/kg-day): 1.91 g
Kidney/Body Weight (75 mg/kg-day): 0.59%
Kidney/Brain Weight (75 mg/kg-day): 96.8%
Liver Weight (75 mg/kg-day): 8.53 g
Liver/Body Weight (75 mg/kg-day): 2.62%
Liver/Brain Weight (75 mg/kg-day): 432%
MPV (75 mg/kg-day): 8.55 ± 0.75 fL
PT (75 mg/kg-day): 14.74 s
RBC (75 mg/kg-day): 7.823±0.340 M/µL
Total BW change (75 mg/kg-day): 94.83 g
Total Food Consumed (75 mg/kg-day): 1522 g
% BW Gain (150 mg/kg-day): 37.70%
% Diff, % BW Gain (150 mg/kg-day): -0.15%
% Diff, Total BW change (150 mg/kg-day): -0.78%
% Diff, Total Food Consumed (150 mg/kg-day): 5.76%
A/G (150 mg/kg-day): 1.14±0.34 ratio
ABEOS (150 mg/kg-day): 0.093±0.035 K/µL
ABNEUT (150 mg/kg-day): 1.175±0.584 K/µL
ABRETi (150 mg/kg-day): 193.46±35.08 10^9/L
ALB (150 mg/kg-day): 4.37 ± 0.51 g/dL
ALPi (150 mg/kg-day): 47.5±8.8 U/L
APTT (150 mg/kg-day): 21.76 s
BUN (150 mg/kg-day): 18.2 ± 2.9 mg/dL
CHOL (150 mg/kg-day): 104.3 ± 20.7 mg/dL
GLOB (150 mg/kg-day): 4.00 ± 0.81 g/dL
GLUC (150 mg/kg-day): 166.7 ± 26.3 mg/dL
HCT (150 mg/kg-day): 45.40±1.55%
HGB (150 mg/kg-day): 14.27 ± 0.54 g/dL
Kidney Weight (150 mg/kg-day): 1.84 g
Kidney/Body Weight (150 mg/kg-day): 0.57%
Kidney/Brain Weight (150 mg/kg-day): 95.8%
Liver Weight (150 mg/kg-day): 8.84 g
Liver/Body Weight (150 mg/kg-day): 2.74%
Liver/Brain Weight (150 mg/kg-day): 462%
MPV (150 mg/kg-day): 8.84 ± 0.70 fL
PT (150 mg/kg-day): 14.99 s
RBC (150 mg/kg-day): 7.731±0.255 M/µL
Total BW change (150 mg/kg-day): 90.34 g
Total Food Consumed (150 mg/kg-day): 1542 g
% BW Gain (300 mg/kg-day): 39.88%
% Diff, % BW Gain (300 mg/kg-day): 5.61%
% Diff, Total BW change (300 mg/kg-day): 5.11%
% Diff, Total Food Consumed (300 mg/kg-day): 7.99%
A/G (300 mg/kg-day): 1.01±0.13 ratio
ABEOS (300 mg/kg-day): 0.085±0.022 K/µL
ABNEUT (300 mg/kg-day): 1.220±0.506 K/µL
ABRETi (300 mg/kg-day): 181.86±36.58 10^9/L
ALB (300 mg/kg-day): 4.15 ± 0.28 g/dL
ALPi (300 mg/kg-day): 54.1±22.2 U/L
APTT (300 mg/kg-day): 22.79 s
BUN (300 mg/kg-day): 17.6 ± 4.5 mg/dL
CHOL (300 mg/kg-day): 107.5 ± 21.4 mg/dL
GLOB (300 mg/kg-day): 4.16 ± 0.64 g/dL
GLUC (300 mg/kg-day): 151.4 ± 28.6 mg/dL
HCT (300 mg/kg-day): 48.02±1.91%
HGB (300 mg/kg-day): 14.98 ± 0.42 g/dL
Kidney Weight (300 mg/kg-day): 1.94 g
Kidney/Body Weight (300 mg/kg-day): 0.59%
Kidney/Brain Weight (300 mg/kg-day): 97.1%
Liver Weight (300 mg/kg-day): 8.59 g
Liver/Body Weight (300 mg/kg-day): 2.63%
Liver/Brain Weight (300 mg/kg-day): 430%
